Measurements published in patent US4298690A, “Antibiotics XK-62-3 and XK-62-4 and process for production thereof” (Kyowa Hakko Kogyo Co., Ltd., priority 1977, dated 1981).
≈ marks a conversion by molar mass, not a printed value. Structures can show the parent of a compound that is named as a salt.

Assays:
[1] = test system: Bacillus subtilis No. 10707; assay: MIC by agar dilution method at pH 8.0, Bacillus subtilis No. 10707; assay type: cell-based; conditions: read-out: Minimum Inhibitory Concentration
Text: (§1) Table 4 illustrates the antibacterial spectra of XK-62-3 and XK-62-4 against various microorganisms.
(§2) (Minimum Inhibitory Concentration, γ/ml
(§3) measured by agar dilution method at pH 8.0)

[2] = test system: Staphylococcus aureus ATCC 6538P; assay: MIC by agar dilution method at pH 8.0, Staphylococcus aureus ATCC 6538P; assay type: cell-based; conditions: ATCC6538P, read-out: Minimum Inhibitory Concentration
Text: as §1, §2, §3

[3] = test system: Klebsiella pneumoniae ATCC 10031; assay: MIC by agar dilution method at pH 8.0, Klebsiella pneumoniae ATCC 10031; assay type: cell-based; conditions: ATCC10031, read-out: Minimum Inhibitory Concentration
Text: as §1, §2, §3

[4] = test system: Klebsiella pneumoniae KY 4261; assay: MIC by agar dilution method at pH 8.0, Klebsiella pneumoniae KY 4261; assay type: cell-based; conditions: KY4261, read-out: Minimum Inhibitory Concentration
Text: as §1, §2, §3

[5] = test system: Escherichia coli ATCC 26; assay: MIC by agar dilution method at pH 8.0, Escherichia coli ATCC 26; assay type: cell-based; conditions: ATCC26, read-out: Minimum Inhibitory Concentration
Text: as §1, §2, §3

[6] = test system: Escherichia coli KY 8310; assay: MIC by agar dilution method at pH 8.0, Escherichia coli KY 8310; assay type: cell-based; conditions: KY8310, read-out: Minimum Inhibitory Concentration
Text: as §1, §2, §3

[7] = test system: Escherichia coli KY 8332; assay: MIC by agar dilution method at pH 8.0, Escherichia coli KY 8332; assay type: cell-based; conditions: KY8332, Escherichia coli KY 8332, resistant to kanamycin, AAC(6')-I, read-out: Minimum Inhibitory Concentration
Text: as §1, §2, §3

[8] = test system: Pseudomonas aeruginosa BMH No. 1; assay: MIC by agar dilution method at pH 8.0, Pseudomonas aeruginosa BMH No. 1; assay type: cell-based; conditions: BMHNO.1, read-out: Minimum Inhibitory Concentration
Text: as §1, §2, §3

[9] = test system: Pseudomonas aeruginosa KY 8563; assay: MIC by agar dilution method at pH 8.0, Pseudomonas aeruginosa KY 8563; assay type: cell-based; conditions: KY8563, Pseudomonas aeruginosa KY 8563, resistant to gentamicin, AAC(3)-II, read-out: Minimum Inhibitory Concentration
Text: as §1, §2, §3

[10] = test system: Pseudomonas aeruginosa Z 444; assay: MIC by agar dilution method at pH 8.0, Pseudomonas aeruginosa Z 444; assay type: cell-based; conditions: Z444, Pseudomonas aeruginosa Z 444, resistant to gentamicin, AAC(6')-III, read-out: Minimum Inhibitory Concentration
Text: as §1, §2, §3

[11] = test system: Pseudomonas aeruginosa Z 445; assay: MIC by agar dilution method at pH 8.0, Pseudomonas aeruginosa Z 445; assay type: cell-based; conditions: Z445, Pseudomonas aeruginosa Z 445, resistant to gentamicin, AAC(6')-III, read-out: Minimum Inhibitory Concentration
Text: as §1, §2, §3

[12] = test system: Proteus vulgaris ATCC 6897; assay: MIC by agar dilution method at pH 8.0, Proteus vulgaris ATCC 6897; assay type: cell-based; conditions: ATCC6897, read-out: Minimum Inhibitory Concentration
Text: as §1, §2, §3

[13] = test system: Shigella sonnei ATCC 9290; assay: MIC by agar dilution method at pH 8.0, Shigella sonnei ATCC 9290; assay type: cell-based; conditions: ATCC9290, read-out: Minimum Inhibitory Concentration
Text: as §1, §2, §3

[14] = test system: Salmonella typhosa ATCC 9992; assay: MIC by agar dilution method at pH 8.0, Salmonella typhosa ATCC 9992; assay type: cell-based; conditions: Salmonella enterica, pH 8, read-out: Minimum Inhibitory Concentration
Text: as §1, §2, §3

[15] = test system: Serratia marcescens KY 4248; assay: MIC by agar dilution method at pH 8.0, Serratia marcescens KY 4248; assay type: cell-based; conditions: KY4248, read-out: Minimum Inhibitory Concentration
Text: as §1, §2, §3

[16] = Acute toxicity in dd-mice; conditions: mouse, in vivo
[17] = Solubility of the free base; assay type: physicochemical; conditions: for solubility in organic solvents: chloroform, benzene, ethyl acetate, butyl acetate, ether, butanol, petroleum ether, n-hexane
[18] = test system: Bacillus subtilis No. 10707; assay: Activity (units) of purified preparate; assay type: cell-based; conditions: for activity: per mg not given, Examples 2D, 3, 4
Protocol: The activity of the eluate is determined against Bacillus subtilis No. 10707 by a paper disk method using an agar plate. Active fractions are combined and concentrated in vacuo to about 3 L. The concentrate is adjusted to pH 8.0 with 6 N sulfuric acid and passed through a column packed with 3 L of an anion exchange resin, Dowex 1×2 (OH^- form). The column is washed with about 20 L of water and active principles are eluted with 1 N aqueous ammonia. The active fractions are combined and concentrated to 1/10 by volume. The pH of the concentrate is adjusted to 10.5 with 6 N sodium hydroxide and 4 volumes of acetone is added thereto. The resulting precipitate is removed by filtration and the acetone layer is concentrated to 2 L. The concentrate is adjusted to pH 4.5 with 6 N sulfuric acid and then 10 L of methanol is added thereto. After cooling, a white precipitate is obtained. The precipitate is separated by filtration and washed with methanol. After drying in vacuo, about 250 g of white powder (sulfate form) is obtained.
The residue is dissolved in a small amount of water and the solution is freeze-dried to obtain about 1.5 g of purified preparate of the free base of XK-62-3.
The residue is dissolved in a small amount of water and the solution is freeze-dried to obtain about 2.2 g of purified preparate of the free base of XK-62-4.
After the completion of fermentation, the culture liquor is adjusted to pH 2.0 with 12 N sulfuric acid and stirred for 30 minutes. Then, about 20 kg of Radiolite No. 600 (filter aid) is added thereto and the microbial cells are removed by filtration. The filtrate is adjusted to pH 8.0 with 6 N sodium hydroxide and passed through a column packed with 100 L of a cation exchange resin, Amberlite IRC-50 (NH4^+ form). After washing the resin with water, the active substances are eluted out with 1 N aqueous ammonia. The eluate is obtained in fractions and the activity of each of the fractions is determined against Bacillus subtilis No. 10707 by a paper disc method using an agar plate. The eluate is concentrated to 2 L under reduced pressure. The concentrate is adjusted to pH 4.5 with 6 N sulfuric acid and the resulting insoluble substance is removed by filtration. To the filtrate 20 L of methanol is added to form a white precipitate. The precipitate is separated by filtration and washed with methanol. After drying in vacuo, 500 g of white powder, of a crude XK-62 series (sulfate form) is obtained.

[19] = test system: Gram-positive and Gram-negative bacteria; assay: Antibacterial activity against a broad range of bacteria (in words); assay type: cell-based
Text: as §1, §2, §3

[20] = test system: resistant strains of Escherichia coli and Pseudomonas aeruginosa (6'-N-acetylation); assay: Antibacterial activity against resistant strains with 6'-N-acetylation (in words); assay type: cell-based; conditions: E. coli and P. aeruginosa resistant by 6'-N-acetylation, etc.
Text: as §1, §2, §3

[21] = test system: resistant strains of Escherichia coli and Pseudomonas aeruginosa (6'-N-acetylation); conditions: strains with 6'-N-acetylation, etc.; known antibiotics; cited from earlier work
[22] = test system: Escherichia coli KY 8327; assay: MIC by agar dilution method at pH 8.0, Escherichia coli KY 8327; assay type: cell-based; conditions: KY8327, pH 8, read-out: Minimum Inhibitory Concentration
Text: as §1, §2, §3

[23] = test system: Escherichia coli KY 8348; assay: MIC by agar dilution method at pH 8.0, Escherichia coli KY 8348; assay type: cell-based; conditions: KY8348, Escherichia coli KY 8348, resistant to gentamicin, AAC(3)-I, read-out: Minimum Inhibitory Concentration
Text: as §1, §2, §3

[24] = test system: Escherichia coli KY 8356; assay: MIC by agar dilution method at pH 8.0, Escherichia coli KY 8356; assay type: cell-based; conditions: KY8356, read-out: Minimum Inhibitory Concentration
Text: as §1, §2, §3

[25] = test system: Pseudomonas aeruginosa KY 8511; assay: MIC by agar dilution method at pH 8.0, Pseudomonas aeruginosa KY 8511; assay type: cell-based; conditions: KY8511, Pseudomonas aeruginosa KY 8511, resistant to gentamicin, AAC(3)-I, read-out: Minimum Inhibitory Concentration
Text: as §1, §2, §3

[26] = test system: Providenicia sp. KY 8464; assay: MIC by agar dilution method at pH 8.0, Providenicia sp. KY 8464; assay type: cell-based; conditions: read-out: Minimum Inhibitory Concentration
Text: as §1, §2, §3

[27] = test system: resistant strains of Escherichia coli and Pseudomonas aeruginosa (3-N-acetylation, 2"-adenylation); assay: Antibacterial activity against resistant strains with 3-N-acetylation, 2"-adenylation (in words); assay type: cell-based; conditions: E. coli and P. aeruginosa resistant by 3-N-acetylation, etc.
Text: as §1, §2, §3

[28] = test system: resistant strains of Escherichia coli and Pseudomonas aeruginosa (3-N-acetylation, 2"-adenylation); conditions: strains with 3-N-acetylation, etc., known antibiotics; cited from earlier work
[29] = free base, Example 1, 1 mg of pure preparate corresponds to 1000 units

CNC1C(O)C(OC2C(N)CC(N)C(OC3OC(CN(C)C)CCC3N)C2O)OCC1(C)O (stereo not shown) [XK-62-4]
MIC [1]: < 0.0011 µg/mL | MIC [2]: 0.0021 µg/mL (≈ 0.0044 µM) | MIC [3]: 0.0082 µg/mL (≈ 0.0172 µM) | MIC [4]: 0.066 µg/mL (≈ 0.138 µM) | MIC [5]: 0.033 µg/mL (≈ 0.0691 µM) | MIC [6]: 0.066 µg/mL (≈ 0.138 µM) | MIC [7]: 0.033 µg/mL (≈ 0.0691 µM) | MIC [8]: 0.26 µg/mL (≈ 0.544 µM) | MIC [9]: > 10 µg/mL | MIC [10]: 0.26 µg/mL (≈ 0.544 µM) | MIC [11]: 0.26 µg/mL (≈ 0.544 µM) | MIC [12]: 0.13 µg/mL (≈ 0.272 µM) | MIC [13]: 0.066 µg/mL (≈ 0.138 µM) | MIC [14]: 0.011 µg/mL (≈ 0.023 µM) | MIC [15]: 0.26 µg/mL (≈ 0.544 µM) | LD50 [16]: 25.9 mg/kg | solubility in organic solvents [17]: insoluble | solubility in ethanol and acetone [17]: slightly soluble | solubility in methanol [17]: soluble | solubility in water [17]: very soluble | activity of purified preparate [18, 29]: about 980 unit/mg | activity [18]: 970 units | antibacterial activity [19]: very strong antibacterial activity | antibacterial activity against certain resistant strains [20]: strong antibacterial activity

CNC1C(O)C(OC2C(N)CC(N)C(OC3OC(CN(C)C)CCC3N)C2O)OCC1(C)O (stereo not shown) [sulfate salt of XK-62-4]
activity [18]: about 625 units

NCC1OC(OC2C(N)CC(N)C(OC3OC(CO)C(O)C(N)C3O)C2O)C(O)C(O)C1O (stereo not shown) [kanamycin A]
effect on resistant strains [21]: ineffective

CNC1CC(N)C(OC2OCC(C)(O)C(NC)C2O)C(O)C1OC1OC(CN)CCC1N (stereo not shown) [XK-62-3]
MIC [1]: < 0.0011 µg/mL | MIC [2]: 0.0021 µg/mL (≈ 0.00453 µM) | MIC [3]: 0.0082 µg/mL (≈ 0.0177 µM) | MIC [4]: 0.066 µg/mL (≈ 0.142 µM) | MIC [5]: 0.066 µg/mL (≈ 0.142 µM) | MIC [6]: 0.066 µg/mL (≈ 0.142 µM) | MIC [22]: 0.066 µg/mL (≈ 0.142 µM) | MIC [23]: 0.033 µg/mL (≈ 0.0712 µM) | MIC [24]: 0.26 µg/mL (≈ 0.561 µM) | MIC [8]: 0.26 µg/mL (≈ 0.561 µM) | MIC [9]: 0.25 µg/mL (≈ 0.539 µM) | MIC [25]: 0.26 µg/mL (≈ 0.561 µM) | MIC [10]: > 10 µg/mL | MIC [12]: 0.26 µg/mL (≈ 0.561 µM) | MIC [13]: 0.13 µg/mL (≈ 0.28 µM) | MIC [14]: 0.033 µg/mL (≈ 0.0712 µM) | MIC [15]: 1.52 µg/mL (≈ 3.28 µM) | MIC [26]: 1.04 µg/mL (≈ 2.24 µM) | LD50 [16]: 106 mg/kg | solubility in organic solvents [17]: insoluble | solubility in ethanol and acetone [17]: slightly soluble | solubility in methanol [17]: soluble | solubility in water [17]: very soluble | activity of purified preparate ([18]; Example 2): 970 units/mg | activity of purified preparate [18, 29]: about 985 unit/mg | antibacterial activity [19]: very strong antibacterial activity | antibacterial activity against certain resistant strains [27]: strong antibacterial activity

NC[C@@H]1CC[C@@H](N)[C@@H](O[C@H]2[C@H](O)[C@@H](O[C@H]3O[C@H](CO)[C@@H](O)[C@H](N)[C@H]3O)[C@H](N)C[C@@H]2N)O1 [dibekacin, 3,4-dideoxy kanamycin B]
effect on resistant strains [21]: ineffective

CNC1CC(N)C(OC2OCC(C)(O)C(NC)C2O)C(O)C1OC1OC(CN)CCC1N (stereo not shown) [sulfate salt of XK-62-3]
activity [18]: about 630 units

NC[C@H]1O[C@H](O[C@H]2[C@H](O)[C@@H](O[C@H]3O[C@H](CO)[C@@H](O)[C@H](N)[C@H]3O)[C@H](N)C[C@@H]2N)[C@H](O)[C@@H](O)[C@@H]1O [kanamycin]
effect on resistant strains [28]: ineffective

CNCC1CCC(N)C(OC2C(N)CC(N)C(OC3OCC(C)(O)C(NC)C3O)C2O)O1 (stereo not shown) [sagamicin (antibiotic XK-62-2)]
effect on resistant strains [28]: ineffective

CN[C@@H]1[C@@H](O)[C@@H](O[C@@H]2[C@@H](O)[C@H](O[C@H]3OC(CN)=CC[C@H]3N)[C@@H](N)C[C@H]2N)OC[C@]1(C)O [sisomicin]
effect on resistant strains [21]: ineffective
